The record followed here is patent US20040121968A1, “Antiangiogenesis by inhibiting protein kinase CK2 activity” (priority 2002, published 2004).

Data set [1] relates to retinal endothelial cells (REC). The experiment in a line: REC survival assay (low serum, MTS cell number). The data set is classed as cell-based, bovine. As for the experimental part: REC proliferation and survival assays. 96-well plates were coated with various amounts of TN-C or vehicle. 5×10^3 cells were added to each triplicate well in low-serum REC medium with various amounts of growth factors (0.5% FCS incomplete BREC medium containing 10 ng/ml of human IGF-I, FGF-2, VEGF, PlGF and PDGF-BB [R&D Systems Inc., Minneapolis, Minn.]). Cell numbers were determined on days 4-7 using the MTS cell proliferation assay (Promega Corp.) according to manufacturer's instructions. Survival was measured in the same way using high glucose (30 mM) or chemical hypoxia (2 mM sodium azide) or serum-free medium to induce cell death. Cell numbers were determined on days 4-7 using MTS assay (Promega).

Data set [2] has the same test system. The experiment in a line: Matrigel assay of capillary-like tube formation. The format is cell-based, bovine. To be noted: for inhibition of REC tube formation: basal and growth factor-stimulated (quercetin 50 μM, emodin, DRB 20-25 μM). As for the experimental part: (§1) In vitro Matrigel™ assay of capillary-like tube formation and secondary sprouting. […] Briefly, 50 μL of reconstituted basement membrane matrix from mouse EHS tumor (BD or GFR Matrigel™; Becton Dickinson Labware, Bedford, Mass.) were dispensed with frozen pipettes into each well of a previously frozen, sterile 96-well plate sitting on wet ice and allowed to solidify for 1 hr at room temperature or 37° C. Approximately 5×10^4 or 7.5×10^4 REC in a 100 μL volume were seeded into each triplicate well. Human recombinant or purified growth factors were added to a final concentration of 10 ng/mL (or as noted) in 0.5% FCS incomplete BREC medium. Capillary-like tube structures formed by REC on reconstituted basement membrane matrix were photographed at various intervals ranging from 12-72 hr; pictures were scanned, digitized and analyzed using image-processing software. For the secondary sprouting assay, cells on reconstituted basement membrane matrix (BD Matrigel™) were seeded as above but incubated in 0.5% FCS incomplete BREC medium without any growth factors for 3 days, allowing for tube formation and collapse. On day 3, human recombinant or purified growth factors were added to a final concentration of 10 ng/mL (or as noted) in low-serum incomplete BREC medium and incubated for another 5-6 days. Digital photographs were obtained with a Kodak MDS 100 camera attached to a Leitz DM IL inverted microscope. Digitized images obtained with a Kodak MDS 100 video camera were stored on compact discs and quantified with NIH Image 1.62 software. The number of living cells in the sprouting colonies were determined using the MTS cell proliferation assay.
(§2) The cells form tubes on Matrigel™ by 16 hr, and by 48 hr, without TN-C or growth factors, the tubes collapse. Secondary sprouting with Matrigel™ invasion starts by day four in culture. Cultures were monitored microscopically. Culture medium with or without growth factors or inhibitors was changed every two-three days.

Data set [3] has as its system oxygen-induced retinopathy in newborn mice. The experiment in a line: Oxygen-induced retinopathy in newborn mice (retinal neovascularization). The format is in vivo, mouse. The settings on record: for retinal neovascularization diminished by: two intraperitoneal injections daily, day 11-17 after birth, emodin 20-30 μg/g, vs untreated or vehicle-treated.
The test system of data set [4] is retinal endothelial cells (REC). The experiment in a line: Secondary sprouting assay on Matrigel. The format is cell-based, bovine. To be noted: for inhibition of REC secondary sprouting: basal and growth factor-stimulated (quercetin 50 μM, emodin, DRB 20-25 μM), H-7: preliminary, not shown. As for the experimental part:
as §1, §2

Data set [5] has the same test system. Nature of the data set: Migration (wound healing) assay. The format is cell-based, bovine. The settings on record: for inhibition of REC migration: basal and growth factor-stimulated (quercetin 50 μM, emodin, DRB 20-25 μM), H-7: preliminary, not shown; for effect on growth factor-mediated cell migration: bovine REC, four GFs (IGF-1+FGF-2+VEGF+PlGF) 10 ng/ml each, 7 days, 0.5% serum, emodin 10 μM, DRB 15 μM. The protocol: Migration assay. REC migration rates were examined in a wound healing assay, where cells migrate over time into the scrape wound in a monolayer. Briefly, cells were seeded in 24-well plates and allowed to reach confluence in growth medium. Prior to growth factor treatment, cells were serum-starved overnight in incomplete BREC medium with 0.5% FCS. All monolayers within an experiment were wounded with a single sterile wood stick of constant diameter, to ensure uniformity in the wound areas among different treatments. Wounded monolayers were then rinsed with low-serum medium to remove detached cells and treated with various combinations of human growth factors at 10 ng/mL each. On day 7, cells were rinsed 3× with PBS and fixed with methanol for 15 min, rehydrated with dH2O and stained with Meyer's hematoxylin for 5 min, followed by destaining with dH2O. All wells were photographed with a 4× or 10× objective using a Kodak MDS 100 digital camera attached to a Leitz DM IL inverted microscope. The original wound area was measured at 0 hr and used as a baseline for comparison to the treated wells at the conclusion of the experiment. The number of cells migrated into the wound was determined. Migrating cell counting was automated using the AAB (Advanced American Biotechnology, Fullerton, Calif.) software. Data were calculated and statistically analyzed (Spirin K S et al., Basement membrane and growth factor gene expression in normal and diabetic human retinas, Curr. Eye Res. 18:490-499 [1999]) relative to control cultures that received the same concentrations of bovine serum albumin instead of growth factors and/or inhibitor, compared to vehicle instead of inhibitor after wounding. Inhibitors were added 30 min before growth factors.

Data set [6] has the same test system. The experiment in a line: REC proliferation assay (MTS cell number). The format is cell-based, bovine. The settings on record: for inhibition of REC proliferation: basal and growth factor-stimulated (quercetin 50 μM, emodin, DRB 20-25 μM), H-7: preliminary, not shown. As for the experimental part:
REC proliferation and survival assays. 96-well plates were coated with various amounts of TN-C or vehicle. […] Cell numbers were determined on days 4-7 using the MTS cell proliferation assay (Promega Corp.) according to manufacturer's instructions. Survival was measured in the same way using high glucose (30 mM) or chemical hypoxia (2 mM sodium azide) or serum-free medium to induce cell death. Cell numbers were determined on days 4-7 using MTS assay (Promega).

The nature of data set [7]: Solubility in water / vehicle. The format is physicochemical.
Data set [8] deals with normal REC and DR REC gene expression. Nature of the data set: Gene array analysis of growth factor action on normal and DR REC. The format is cell-based, human. The settings on record: 10 ng/mL growth factor, seven days, 0.5% serum. As for the experimental part: Normal REC and DR REC gene expression patterns were compared by gene array analysis. Normal, diabetic and DR autopsy human eyes are obtained from National Disease Research Interchange (NDRI), within 24 hours after death. These eyes are used to isolate REC for culture as described hereinabove. Cultures can be used up to the fourth passage, and viable cultures can be cryogenically stored. Cultures of normal, diabetic and DR REC are established from autopsy human eyes and routinely checked for purity using von Willebrand factor immunostaining as described hereinabove. Cells are cultured in 50% F-12, 50% low-glucose DMEM with antibiotics/antimycotics (GIBCO/BRL), insulin-transferrin-selenite, ECGS (Sigma Chemical Co.), and 20% FCS. Statistical analysis of results is done with GraphPad Prism software (GraphPad Software).
In experiments, normal, diabetic, and DR REC were grown for seven days with or without 10 ng/ml VEGF, or 10 ng/mL IGF-I, or 10 ng/mL each VEGF and IGF-I, in medium with 0.5% serum. Long-term rather than short-term treatment was chosen because diabetes develops over a considerable time period. RNA isolated from REC was reverse-transcribed using Smart™ cDNA synthesis method (Clontech), to produce full-length cDNA. Two normal cases or two DR cases were pooled together. This cDNA was PCR-amplified with a short number of cycles and used as a probe for Clontech Atlas Human 1.2 1,200-gene arrays, according to the manufacturer's instructions. This technique had previously been refined and verified by Northern analysis and fully correlated gene array data with protein expression. (Spirin K S et al., Analysis of gene expression in human bullous keratopathy corneas containing limiting amounts of RNA, Invest. Ophthalmol. Vis. Sci. 40:3108-3115 [1999]). Samples were normalized to several housekeeping genes and the analysis was done with available AtlasImage 2.0 software (Clontech). Signal ratio>2 between samples was considered significant as per manufacturer's recommendation.

Where [9] appears, read: emodin-treated vs vehicle control.
The mark [10] stands for this setting: growth factors at 10 ng/ml each.

`OC[C@H]1O[C@@H](n2cnc3cc(Cl)c(Cl)cc32)[C@H](O)[C@@H]1O` [DRB, 5,6-dichloro-1-β-D-ribofuranosylbenzimidazole]: the “effect on number of live cells (survival)” value in data set [1] (bovine REC, 0.5% serum, various concentrations, day 6, MTS) was “significantly lowers cell number”. Moreover, the “inhibition of REC tube formation” value in data set [2] is “potently inhibited”. In data set [3], the “retinal neovascularization diminished by” value is listed as “about 60%”. Further, in data set [4], the “inhibition of REC secondary sprouting” value was “potently inhibited”. For the same compound, in data set [4] (bovine REC on Matrigel, 0.5% serum, day 9, MTS), the “concentration from which cell number in secondary sprouting is significantly decreased” value was not below 25 µM. Besides, in data set [5], the “inhibition of REC migration” value is reported as “potently inhibited” and the “effect on growth factor-mediated cell migration” value is “significant inhibitory effect”. The “inhibition of REC proliferation” value in data set [6] is on record as “potently inhibited”. Also, the “effect on number of live cells (proliferation)” value in data set [6] (bovine REC, 10% serum, various concentrations, day 6, MTS) is “significantly lowers cell number”. Further, the solubility in water result in data set [7] is reported as “not easily dissolved in water”.
`CC1CNCCN1S(=O)(=O)c1cccc2cnccc12` (stereo not drawn) [H-7]: the “effect on REC tubes on Matrigel” value in data set [2] (preliminary results, not shown) was “stabilized”. Moreover, the “inhibition of REC secondary sprouting” value in data set [4] is “inhibited”. In addition, the “inhibition of REC migration” value in data set [5] is “inhibited”. The “inhibition of REC proliferation” value in data set [6] is reported as “inhibited”.
`Cc1cc(O)c2c(c1)C(=O)c1cc(O)cc(O)c1C2=O` [emodin, 3-methyl-1,6,8-trihydroxyanthraquinone]: the “inhibition of REC tube formation” value in data set [2] is “potently inhibited”. In data set [3] (setting [9]), the “neovascular tufts in fluorescein angiograms” value is recorded as “much less pronounced” and the “retinal vascularization in fluorescein angiograms” value is recorded as “significantly less vascularization”. Further, in data set [3], the “retinal neovascularization diminished by” value is 70-75%. Also, the “inhibition of REC secondary sprouting” value in data set [4] is listed as “potently inhibited”. For the same compound, in data set [5], the “inhibition of REC migration” value is listed as “potently inhibited” and the “effect on growth factor-mediated cell migration” value is recorded as “significant inhibitory effect”. The “inhibition of REC proliferation” value in data set [6] was “potently inhibited”. In addition, in data set [7], the solubility in water entry is listed as “not easily dissolved in water”. Also, the solubility in vehicle entry in data set [7] (phosphate-buffered saline with 20% PEG 400 + 2% Tween-80, pH 7.2) was “did not ensure emodin solubility”.
`O=c1c(O)c(-c2ccc(O)c(O)c2)oc2cc(O)cc(O)c12` [quercetin]: the “inhibition of REC tube formation” value in data set [2] is listed as “potently inhibited”. Also, in data set [3] (intramuscular injections, data not shown), the “effect on retinal neovascularization” value is listed as “substantial effect”. Moreover, the “inhibition of REC secondary sprouting” value in data set [4] is listed as “potently inhibited”. The “inhibition of REC migration” value in data set [5] is recorded as “potently inhibited”. The “inhibition of REC proliferation” value in data set [6] is on record as “potently inhibited”.
Regarding FGF-2: fibroblast growth factor (FGF)-2, the “growth factor effect on secondary sprouting (in words)” value in data set [4] (10 ng/mL growth factor) is “greatly enhanced”. Further, the “stimulation of secondary sprouting (fold)” value in data set [4] (growth factors, on average) is “four-fold”.
With “IGF-I: insulin-like growth factor (IGF)-I”, the “expression of pro-apoptotic genes” value in data set [8] was “decrease”.
Consider VEGF, for which the “growth factor effect on REC survival” value in data set [1] (setting [10]) is reported as “little effect”. The “growth factor effect on REC migration” value in data set [5] (setting [10]) is “significantly enhanced”. In data set [8], the “expression of pro-apoptotic genes” value is “did not display an increase” and the “expression of proliferation-related genes” value is “upregulated”.
